Laboratory results from the supplement of paper PMC7108870.

Key:
[1] = tested on: HEK293sieSTAT3(wt); assay: drug sensitivity score (DSS), cytotoxicity CellTox Green (DSS (dimensionless)); higher = more cytotoxic; extreme values may be limits of the assay; settings: 72 h; STAT3 variant: wild type
Outline: (§1)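 Each value is one representative of two experiments in which HEK293 cells overexpressing wild-type or mutant STAT3 with a STAT3-dependent luciferase reporter were exposed to compounds at 5 concentrations (10-fold dilutions) for 72 hours at 37°C and 5% CO2. Readouts were CellTox Green fluorescence and then CellTiter-Glo luminescence, normalised to negative and positive control wells. The drug sensitivity score was based on the dose-response curve area and computed in Breeze.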

[2] = tested on: HEK293sieSTAT3(Y640F); assay: as above; settings: 72 h; STAT3 variant: Y640F (constitutively active)
Outline: as §1

[3] = tested on: HEK293sieSTAT3(wt); assay: drug sensitivity score (DSS), viability CellTiter-Glo (DSS (dimensionless)); higher = more growth inhibition; extreme values may be limits of the assay; settings: 72 h; STAT3 variant: wild type
Outline: as §1

[4] = tested on: HEK293sieSTAT3(Y640F); assay: as above; settings: 72 h; STAT3 variant: Y640F (constitutively active)
Outline: as §1

## COc1cc(F)c(F)c(Nc2ccc(I)cc2F)c1NS(=O)(=O)C1(C[C@H](O)CO)CC1 [Refametinib] (top concentration tested 10000 nM)
[1]
  drug sensitivity score: 0
[2]
  drug sensitivity score: 0
[3]
  drug sensitivity score: 1.58
[4]
  drug sensitivity score: 2.4

## CNC(=O)c1cc(Oc2ccc(NC(=O)Nc3ccc(Cl)c(C(F)(F)F)c3)c(F)c2)ccn1 [Regorafenib] (top concentration tested 10000 nM)
[1]
  drug sensitivity score: 0
[2]
  drug sensitivity score: 0
[3]
  drug sensitivity score: 6.43
[4]
  drug sensitivity score: 6.11

## CN(C)Cc1ccc(S(=O)(=O)n2ccc(/C=C/C(=O)NO)c2)cc1 [Resminostat] (top concentration tested 10000 nM)
[1]
  drug sensitivity score: 6.75
[2]
  drug sensitivity score: 5.95
[3]
  drug sensitivity score: 12.3
[4]
  drug sensitivity score: 11.5

## CN(C)C(=O)c1cc2cnc(Nc3ccc(N4CCNCC4)cn3)nc2n1C1CCCC1 [Ribociclib] (top concentration tested 10000 nM)
[1]
  drug sensitivity score: 2.66
[2]
  drug sensitivity score: 0.06
[3]
  drug sensitivity score: 5.65
[4]
  drug sensitivity score: 4.33

## CO[C@H]1C[C@@H]2CC[C@@H](C)[C@@](O)(O2)C(=O)C(=O)N2CCCC[C@H]2C(=O)O[C@H]([C@H](C)C[C@@H]2CC[C@@H](OP(C)(C)=O)[C@H](OC)C2)CC(=O)[C@H](C)/C=C(\C)[C@@H](O)[C@@H](OC)C(=O)[C@H](C)C[C@H](C)/C=C/C=C/C=C/1C [Ridaforolimus] (top concentration tested 100 nM)
[1]
  drug sensitivity score: 0
[2]
  drug sensitivity score: 0
[3]
  drug sensitivity score: 13.9
[4]
  drug sensitivity score: 8.94

## COc1cc(OC)c(/C=C/S(=O)(=O)Cc2ccc(OC)c(NCC(=O)O)c2)c(OC)c1 [Rigosertib] (top concentration tested 10000 nM)
[1]
  drug sensitivity score: 18.7
[2]
  drug sensitivity score: 6.71
[3]
  drug sensitivity score: 21.9
[4]
  drug sensitivity score: 21.8

## C=CC(=O)Nc1cccc(Nc2nc(Nc3ccc(N4CCN(C(C)=O)CC4)cc3OC)ncc2C(F)(F)F)c1 [Rociletinib] (top concentration tested 10000 nM)
[1]
  drug sensitivity score: 4.1
[2]
  drug sensitivity score: 0.23
[3]
  drug sensitivity score: 7.99
[4]
  drug sensitivity score: 8.18

## O=C(CCCCCCNC(=O)c1cnc(N(c2ccccc2)c2ccccc2)nc1)NO [Rocilinostat] (top concentration tested 10000 nM)
[1]
  drug sensitivity score: 0.53
[2]
  drug sensitivity score: 1.02
[3]
  drug sensitivity score: 6.92
[4]
  drug sensitivity score: 8

## CS(=O)(=O)c1ccc(C2=C(c3ccccc3)C(=O)OC2)cc1 [Rofecoxib] (top concentration tested 10000 nM)
[1]
  drug sensitivity score: 0
[2]
  drug sensitivity score: 0
[3]
  drug sensitivity score: 0
[4]
  drug sensitivity score: 0

## C/C=C1\NC(=O)[C@H]2CSSCC/C=C/[C@H](CC(=O)N[C@H](C(C)C)C(=O)N2)OC(=O)[C@H](C(C)C)NC1=O [Romidepsin] (top concentration tested 1000 nM)
[1]
  drug sensitivity score: 29.9
[2]
  drug sensitivity score: 23.6
[3]
  drug sensitivity score: 29.5
[4]
  drug sensitivity score: 32.4

## CN(C)C[C@@H]1CCn2cc(c3ccccc32)C2=C(C(=O)NC2=O)c2cn(c3ccccc23)CCO1 [Ruboxistaurin] (top concentration tested 10000 nM)
[1]
  drug sensitivity score: 6.85
[2]
  drug sensitivity score: 6.6
[3]
  drug sensitivity score: 8.97
[4]
  drug sensitivity score: 9

## CNCc1ccc(-c2[nH]c3cc(F)cc4c3c2CCNC4=O)cc1 [Rucaparib] (top concentration tested 10000 nM)
[1]
  drug sensitivity score: 0.89
[2]
  drug sensitivity score: 0
[3]
  drug sensitivity score: 4.23
[4]
  drug sensitivity score: 4.37

## N#CC[C@H](C1CCCC1)n1cc(-c2ncnc3[nH]ccc23)cn1 [Ruxolitinib] (top concentration tested 10000 nM)
[1]
  drug sensitivity score: 0.1
[2]
  drug sensitivity score: 0.39
[3]
  drug sensitivity score: 3.2
[4]
  drug sensitivity score: 2.89

## CC(C)N(CCCNC(=O)Nc1ccc(C(C)(C)C)cc1)C[C@H]1O[C@@H](n2cc(Br)c3c(N)ncnc32)[C@H](O)[C@@H]1O [SGC0946] (top concentration tested 10000 nM)
[1]
  drug sensitivity score: 6.85
[2]
  drug sensitivity score: 0.07
[3]
  drug sensitivity score: 7.15
[4]
  drug sensitivity score: 3.05

## COc1ccc(CCc2nc3cc(-c4c(C)noc4C)ccc3n2C[C@H](C)N2CCOCC2)cc1Cl [SGC-CBP30] (top concentration tested 25000 nM)
[1]
  drug sensitivity score: 4.24
[2]
  drug sensitivity score: 0.32
[3]
  drug sensitivity score: 4.3
[4]
  drug sensitivity score: 3.16

## CN1CCC(CNc2ccc3ncc(-c4cccc(OC(F)(F)F)c4)n3n2)CC1 [SGI-1776] (top concentration tested 10000 nM)
[1]
  drug sensitivity score: 7.56
[2]
  drug sensitivity score: 4.99
[3]
  drug sensitivity score: 9.07
[4]
  drug sensitivity score: 6.8

## Cn1cc(-c2ccc3nnc(Sc4ccc5ncccc5c4)n3n2)cn1 [SGX-523] (top concentration tested 5000 nM)
[1]
  drug sensitivity score: 0
[2]
  drug sensitivity score: 0.89
[3]
  drug sensitivity score: 0.49
[4]
  drug sensitivity score: 0
